Test [1] concerns the target T1, Bromodomain adjacent to zinc finger domain protein 1A (Homo sapiens, UniProt Q9NRL2). Briefly: Binding affinity to recombinant human N-terminal His6-tagged BAZ1A (1446 to 1516 residues) expressed in Escherichia coli BL21 (DE3) cells assessed as change in melting temperature at 25 uM by DSF assay. For orientation: In DSF a fluorescence change marks the thermal transition of the protein.

The target in test [2] is T1, Bromodomain adjacent to zinc finger domain protein 1A. The test is described as follows: Binding affinity to recombinant human N-terminal His6-tagged BAZ1A (1446 to 1516 residues) expressed in Escherichia coli BL21 (DE3) cells by MST assay.
A further test concerns NCI-H1975. Briefly: Cytotoxicity against human H1975 cells assessed as reduction in cell viability incubated for 72 hrs by MTT assay. Type of test: functional, cell-based. Conditions: NCI-H1975, 72 h.
A further test has as its system Bel-7402. The test is described as follows: Cytotoxicity against human BEL7402 cells assessed as reduction in cell viability incubated for 72 hrs by MTT assay. The class given is functional, cell-based. The settings on record: Bel-7402, 72 h. For orientation: Tetrazolium dyes change colour on reduction, which living cells bring about.
Test [3] in a line: Cytotoxicity against human H820 cells assessed as reduction in cell viability incubated for 72 hrs by MTT assay. Conditions: NCI-H820, 72 h. Type of test: functional, cell-based.
In another test the test system is U-87 MG. Briefly: Cytotoxicity against human U87 cells assessed as reduction in cell viability incubated for 72 hrs by MTT assay. The class given is functional, cell-based, U-87MG ATCC.
A further test concerns THP-1. The test is described as follows: Cytotoxicity against human THP-1 cells assessed as reduction in cell viability incubated for 72 hrs by MTT assay. Type of test: functional, cell-based. Conditions: THP-1, 72 h.
The subject of another test is ZR-75-30. Briefly: Cytotoxicity against human ZR-75-30 cells assessed as reduction in cell viability incubated for 72 hrs by MTT assay. Type of test: functional, cell-based. Conditions: ZR-75-30, 72 h.
The next test relates to BT-474. The test is described as follows: Cytotoxicity against human BT474 cells assessed as reduction in cell viability incubated for 72 hrs by MTT assay. The class given is functional, cell-based. Conditions: BT-474, 72 h.

Each structure is given as a SMILES string.

T1 sequence (Q9NRL2 whole entry, the tested form may be a part): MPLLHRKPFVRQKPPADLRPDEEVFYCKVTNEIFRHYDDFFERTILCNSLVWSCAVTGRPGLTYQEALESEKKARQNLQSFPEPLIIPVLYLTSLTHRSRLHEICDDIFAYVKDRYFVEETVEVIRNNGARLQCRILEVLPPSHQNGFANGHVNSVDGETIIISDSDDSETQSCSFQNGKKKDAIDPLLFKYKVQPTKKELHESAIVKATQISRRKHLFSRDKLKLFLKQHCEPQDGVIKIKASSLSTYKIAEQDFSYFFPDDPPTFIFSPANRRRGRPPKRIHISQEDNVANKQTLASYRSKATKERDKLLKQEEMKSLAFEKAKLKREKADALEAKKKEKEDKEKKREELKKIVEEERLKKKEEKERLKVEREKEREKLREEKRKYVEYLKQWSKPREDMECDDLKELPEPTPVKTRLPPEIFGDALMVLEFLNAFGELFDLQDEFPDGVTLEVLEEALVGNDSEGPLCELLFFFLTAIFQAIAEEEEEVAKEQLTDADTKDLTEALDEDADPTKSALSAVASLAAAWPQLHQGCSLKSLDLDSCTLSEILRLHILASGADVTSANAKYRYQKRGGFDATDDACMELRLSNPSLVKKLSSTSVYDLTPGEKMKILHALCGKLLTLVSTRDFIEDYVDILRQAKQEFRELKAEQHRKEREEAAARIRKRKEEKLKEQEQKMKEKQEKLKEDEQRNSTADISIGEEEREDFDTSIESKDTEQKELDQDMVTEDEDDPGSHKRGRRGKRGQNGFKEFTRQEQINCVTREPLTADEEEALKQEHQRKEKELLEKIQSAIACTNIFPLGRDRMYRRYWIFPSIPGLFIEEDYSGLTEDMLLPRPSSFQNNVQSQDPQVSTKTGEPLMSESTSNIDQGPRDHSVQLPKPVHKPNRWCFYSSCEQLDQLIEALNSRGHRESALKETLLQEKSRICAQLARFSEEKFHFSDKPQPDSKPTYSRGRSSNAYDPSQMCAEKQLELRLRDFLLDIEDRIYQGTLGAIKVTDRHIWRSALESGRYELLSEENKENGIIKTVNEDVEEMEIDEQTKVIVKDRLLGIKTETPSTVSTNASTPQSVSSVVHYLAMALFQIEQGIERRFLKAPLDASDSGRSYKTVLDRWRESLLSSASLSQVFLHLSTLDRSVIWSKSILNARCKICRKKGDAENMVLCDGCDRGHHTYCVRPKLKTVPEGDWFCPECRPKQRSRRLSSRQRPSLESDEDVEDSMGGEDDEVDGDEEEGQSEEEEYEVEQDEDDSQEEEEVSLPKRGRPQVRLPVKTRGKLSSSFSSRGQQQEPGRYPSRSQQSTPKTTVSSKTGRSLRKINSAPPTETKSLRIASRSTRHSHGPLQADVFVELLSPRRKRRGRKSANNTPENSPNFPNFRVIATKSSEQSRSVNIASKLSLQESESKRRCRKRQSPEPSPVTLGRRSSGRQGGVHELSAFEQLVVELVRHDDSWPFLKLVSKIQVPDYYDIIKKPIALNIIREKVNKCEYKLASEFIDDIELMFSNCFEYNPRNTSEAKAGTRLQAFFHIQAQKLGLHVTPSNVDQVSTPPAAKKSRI

As a reminder, the ΔTm is the change in melting temperature against a reference sample. As a reminder, the Kd is the constant that tells how readily two partners part at equilibrium. With `NC(C(=O)Nc1ccc2nnsc2c1)c1ccccc1` (centres undefined), the ΔTm in test [1] is 1.25 °C. In addition, the Kd in test [2] was determined as 1.87 µM.
For `CN(C)c1ccc(NC(=O)Nc2cccc([N+](=O)[O-])c2)cc1`, in test [1], the ΔTm was 1.56 °C. Moreover, in test [2], the Kd amounted to 1.76 µM.
As to `Cc1ccc2nc(-c3ccc(NC(=O)c4ccc([N+](=O)[O-])o4)cc3)oc2c1`, in [1], the thermal shift (ΔTm) is 1.9 °C. Moreover, the Kd in [2] was 26.6 µM.
The matching figures for `CC(NC(=O)Nc1ccc2nnsc2c1)c1cccc(F)c1` (centres undefined): 1.62 °C and 8.2 µM.
For `O=C(Nc1cccc([N+](=O)[O-])c1)Nc1ccc2cccnc2c1`, in test [1], the ΔTm came to 1.63 °C. The Kd in [2] is 6.68 µM.
Regarding `O=C(Nc1ccc(C(F)(F)F)cc1)Nc1cccc(O)c1`, the ΔTm in test [1] was 3.15 °C. Moreover, the Kd in [2] was 13.2 µM.
For `O=C(Nc1cccc([N+](=O)[O-])c1)Nc1ccc2nccnc2c1`, in test [1], the ΔTm was 1.64 °C. In addition, the Kd in [2] stood at 3.09 µM.
The term IC50 denotes the concentration that gives 50% inhibition. For `O=C(Nc1cccc([N+](=O)[O-])c1)Nc1nc(-c2ccccc2)cs1`, the IC50 in the test on NCI-H1975 is 7.7 µM; with Bel-7402 it was over 100 µM; in [3], 73.7 µM; with U-87 MG it was over 100 µM; in the test with THP-1, 5.08 µM; with ZR-75-30 it was 4.29 µM. Further, in the test on BT-474, the IC50 is 10.7 µM. Besides, the ΔTm in test [1] was 2.73 °C. The Kd in test [2] amounted to 0.52 µM.
Take `O=C(NCC(=O)N1CCCCC1)Nc1ccc2nnsc2c1`: in test [1], the ΔTm amounted to 1.2 °C. Also, the dissociation constant (Kd) in [2] worked out at 25.6 µM.
Taken in the same sequence, the figures for `O=C(Nc1ccc(Cl)c(Cl)c1)Nc1ccc2nnsc2c1` were 2.59 °C and 1.57 µM.
In the case of `O=C(Nc1ccc2nnsc2c1)N(O)c1ccccc1`, the ΔTm in [1] was 1.68 °C. The Kd in test [2] turned out to be 16.3 µM.
Taken in the same sequence, the figures for `C=C(C)C(=O)Nc1ccc(-c2nc3cc(NC(=O)C(=C)C)ccc3[nH]2)cc1` were 1.61 °C and 15.2 µM.
`O=C(Nc1ccc2cncnc2c1)Nc1ccc2nnsc2c1`: the ΔTm in [1] came out at 1.94 °C. In addition, in test [2], the Kd stood at 3.93 µM.
`O=C(Nc1cccc([N+](=O)[O-])c1)Nc1ccc2c(c1)OCCO2`: the ΔTm in test [1] was 1.62 °C. The Kd in test [2] turned out to be 1.36 µM.
With `O=C(Nc1cccc([N+](=O)[O-])c1)Nc1ccc2c(c1)C(=O)CC2`, the ΔTm in test [1] was 1.16 °C. Also, the Kd in test [2] came to 22 µM.
Taken in the same sequence, the figures for `CN(Cc1cccc([N+](=O)[O-])c1)C(=O)Nc1ccc2nnsc2c1` were 1.46 °C and 57.6 µM.

The values above are taken from ChEMBL document CHEMBL4673371, “Discovery of BAZ1A bromodomain inhibitors with the aid of virtual screening and activity evaluation” (Bioorg Med Chem Lett, 2021).
